In series [1] the test system is Mouse embryonic fibroblast cells (MEFs). Put plainly: cells. In kind it is cell-based. How it is done:
(§1) MTT (3-(4,5-dimethylthiazol-2-yl)-2,5-diphenyltetrazolium) assay was performed to determine the effect of AS-10 on cancer cell viability (Plano et al., 2016, J. Med. Chem. 1946-1959; Alcolea et al., 2012, Eur. J. Med. Chem. 113:134-144; Kumar et al., 2014, Eur. J. Med. Chem. 81:267-276). Briefly, 3×10^3 cells were treated with different concentrations of AS-10 in triplicate in a 96-well plate for different time points. MTT solution (20 μL of 5.0 mg/mL solution) was added to each well, three hours prior to termination time point and incubated at 37° C. Resultant formazan crystals, at termination time point, were dissolved in 50 μL DMSO. The plate was subjected to a 96-well multiscanner (Dynex Technologies, MRX Revelation; Chantilly, Va., USA) for measuring the optical densities at 570 nm and 630 nm. IC50 values were determined by performing non-linear regression using Graphpad Prism software.
To determine that AS-10 was selectively toxic to cancer cells, the effect of AS-10 in normal Mouse embryonic fibroblast cells (MEFs) was tested using MTT assay. MEFs were treated with AS-10 for 48 h and the data was compared with Panc-1 cells, treated for 48 h. […] At the dose which yields 50 percent growth inhibition in PC cells, AS-10 had no effect on MEFs growth.

Series [2] in a line: Maximum tolerated dose (MTD) / toxicology studies in mice.
A further series has as its system pancreatic cancer cells. The series is described as follows: MTT cell viability assay, pancreatic cancer (PC) cells. In kind it is cell-based. To be noted: Pancreatic cancer cell. How it is done: as §1
(Tetrazolium assays rely on reduction of a dye to a coloured formazan, in cell work by metabolically active cells.)

Series [3] concerns Panc-1 cells. The series is described as follows: Muse caspase 3/7 activity assay. The settings on record: Panc-1, 10 μM. It counts as cell-based. The procedure: To evaluate the efficacy of AS-10 in inducing caspase 3, Panc-1 cells were treated with AS-10 at different concentrations for different time points. Caspase 3/7 activity was measured using Muse Caspase-3/7 Assay kit with Muse cell analyzer (EMD Millipore, Billercia, Mass. USA) according to manufacturer's protocol (Plano et al., 2016, J. Med. Chem. 1946-1959). In brief, the Muse Caspase 3/7 kit contains a reagent namely NucView for detection of activated caspase 3/7. The reagent is cell membrane permeable and contains a DNA binding dye that is linked to a DEVD peptide substrate. In presence of activated caspase 3/7, DEVD is cleaved and DNA binding dye is released. Therefore, cells with active caspase 3/7 activity will yield high fluorescence. (Ref Millipore, Catlog No. MCH100108). The kit also contains a dead cell marker, 7-AAD, for detection of cells with compromised cell membrane. Data from Muse cell analyzer were analyzed using Muse 1.4 software.

In series [4] the test system is NCI-60 Human Tumor Cell Lines. Put plainly: NCI-60 Human Tumor Cell Lines Screen. In kind it is cell-based. How it is done: AS-10 was submitted for National Cancer Institute's (NCI) Division of Cancer Treatment and Diagnosis (DCTD) for a single dose (10 μM for 72 h) screening on 60 different cancer cell lines (NCI-60 Human Tumor Cell Lines Screen, Developmental Therapeutic Program). The panel of cell lines included leukemia, non-small cell lung, colon, CNS, melanoma, ovarian, renal, prostate and breast cancer cell lines. […] AS-10 was screened against the same 60 cell lines at a dose of 0, 0.01, 0.1, 1, 10 and 100 μM for 72 h. […] Cell lines are grouped by the cancer type they represent. […] FIG. 16 is the tabular format of the effects of AS-10 on growth of all the tested cell lines.

For series [5], the system named is Panc-1 cells. The series is described as follows: MTT cell viability assay, Panc-1. It counts as cell-based. To be noted: for IC50: Homo sapiens. The procedure:
as §1
To test the anti-cancer activity of AS-10 in pancreatic cancer (PC) cell lines, a MTT assay was performed. PC cell lines, Panc-1 and BxPC3, were treated with AS-10 at different doses at different time points (24, 48, and 72 h). Resulting cells were subjected to MTT cell viability assay. […] Panc-1 cells were treated with different doses of AS-10 for 48 h. After 48 h, live cells were counted and plated in a new petri dish. Cells were allowed to form colonies for 17 days. At the end of 17 days the colonies were counted and compared to the untreated cells.

Series [6] relates to different cancer cell types (breast, colorectal, lung, melanoma, ovarian, prostate). The series is described as follows: MTT assay in different cancer cell lines. It counts as cell-based. To be noted: 24, 48 and 72 h. How it is done: as §1
Series [7] has as its system Panc-1 cells. The series is described as follows: Muse Live/dead Annexin V assay. It counts as cell-based. To be noted: Panc-1, 48 h; AS-10 2.5 μM, gemcitabine 50 μM. How it is done:
Muse Annexin V & Dead Cell kit was used to determine the apoptosis cells in AS-10 treated Panc-1 cells (Plano et al., 2016, J. Med. Chem. 1946-1959). The Muse Annexin V & Dead cell assay contains Annexin V to detect phosphatidylserine (PS) on the outer surface of cells. The kit also contains a dead cell marker, 7-amino-actinomycin D (7-AAD). […] In brief, Panc-1 (1.5×10^5) cells were treated with a given dose of AS-10 or DMSO for appropriate time (0, 6, 12, 24, 36, or 48 h). Both floating cells as well as adherent cells were collected and subjected for Annexin V staining using Muse Annexin V & Dead Cell kit with Muse cell analyzer (EMD Millipore, Billerica, Mass., USA). The obtained data were analyzed using Muse 1.4 software.

Series [8] has as its system Panc-1 cells. The series is described as follows: Live/dead assay with calcein-AM and ethidium bromide. It counts as cell-based. To be noted: Panc-1, 48 h; AS-10 2.5 μM, gemcitabine 50 μM. How it is done:
To determine the dead cell population, we used LIVE/DEAD Viability/Cytotoxicity Kit (L3224, Life technologies, USA). Panc-1 cells were treated with either DMSO, gemcitabine (50 μM), or AS-10 (2.5 μM) or in combination for 48 h. Live and dead cells were determined by subjecting treated cells to LIVE/DEAD Viability/Cytotoxicity Kit (Plano et al., 2016, J. Med. Chem. 1946-1959). […] While ethidium homodimer-1 can only enter cells who have lost their plasma membrane integrity or dead cells and fluorescents red. Stained cells were visualized using a fluorescence microscope (Zeiss—Axio Scope.A1) with a 20× objective lens. Percentage values of live and dead cells were calculated.

Each structure is given as a SMILES string. A value given as a limit tells only on which side of the number the result lay.

The IC50 is the point on the concentration scale where inhibition reaches its midpoint. The term MTD denotes the largest dose that counted as tolerated. Read a high MTD as better tolerability. The EC50 is the midpoint of the concentration-response curve. In the case of `CC(=O)Oc1ccccc1C(=O)/N=C1\[Se]CCN1C(=O)c1ccccc1OC(C)=O` [AS-10, 2-((3-(2-acetoxybenzoyl)-1,3-selenazolidin-2-ylidene)carbamoyl)phenyl acetate], the “effect on MEFs growth” value in [1] is “no effect”. In addition, the IC50 is more than 50000 nM in [1] (Mus musculus, Fibroblast, read-out: IC50, normal (Mouse Embryonic Fibroblasts) cells); 500 to 2500 nM with pancreatic cancer cells (read-out: IC50, cytotoxicity to pancreatic cancer cells); 1000 to 2500 nM in the series with Panc-1 cells [5] (PANC-1, 48 h); 1000 to 5000 nM in the series on Panc-1 cells [5] (Panc-1, different time points (24, 48, 72 h)). Besides, in [2] (mouse, in vivo), the “safety margin, preliminary toxicology study in mice” value was “wide safety margin”. For the same compound, the “tolerability of AS-10 relative to Asp-SeCN (MTD)” value in series [2] (nude mice) is approximately 5 times. The same compound had a maximal tolerated dose (MTD) in [2] (nude, mouse, in vivo, ip) of approximately 80 mg/kg. Besides, the EC50 in the series on pancreatic cancer cells (in vitro, read-out: EC50, reduction of PC cell growth) was in the range of 2500 to 5000 nM. In addition, the “mode of cell death (caspase 3/7 activity, Annexin V)” value in the series on Panc-1 cells [3] was “die in an apoptotic manner”. Besides, the “necrosis (cells only positive for 7-ADD)” value in the series on Panc-1 cells [3] is “did not induce necrosis”. Moreover, the “selectivity among NCI-60 cell types” value in series [4] (0.01-100 μM, 72 h) was “most cytotoxic towards CNS, melanoma and renal cancer cell lines”. Moreover, the “cell growth of NCI-60 cell lines” value in series [4] (single dose 10 μM for 72 h) is “inhibited cell growth of all 60 cell lines”. Further, the “potency relative to gemcitabine” value in the series with Panc-1 cells [5] (Panc-1, 48 h) was more than 500 times. Moreover, the “growth of different cancer cell types” value in series [6] was “effectively inhibited growth”. The total apoptotic cells in the series with Panc-1 cells [7] is reported as approximately 25%. Moreover, in the series with Panc-1 cells [8], the dead cells is reported as approximately 10%.

The record behind these values is patent publication US10287259B2, “Selenazolidine and thiazolidine compounds for treating cancer and other diseases” (The Penn State Research Foundation, priority 2016, dated 2019).
